Blank lines part the entries; values can stand above or below the molecule they belong to.
Key:
MDA-MB-468 cells = assay: Cell viability assay; format: cell-based; details: Cell Titer Glo
[1] = Stability in solution and photo-stability; format: physicochemical; details: for photo-stability: exposed to normal fluorescent light, aryl iodide
androgen receptor (AR) = target: T1, androgen receptor (AR) (Homo sapiens, UniProt P10275); assay: Androgen reporter assay; format: cell-based
T1 sequence (P10275 1-920): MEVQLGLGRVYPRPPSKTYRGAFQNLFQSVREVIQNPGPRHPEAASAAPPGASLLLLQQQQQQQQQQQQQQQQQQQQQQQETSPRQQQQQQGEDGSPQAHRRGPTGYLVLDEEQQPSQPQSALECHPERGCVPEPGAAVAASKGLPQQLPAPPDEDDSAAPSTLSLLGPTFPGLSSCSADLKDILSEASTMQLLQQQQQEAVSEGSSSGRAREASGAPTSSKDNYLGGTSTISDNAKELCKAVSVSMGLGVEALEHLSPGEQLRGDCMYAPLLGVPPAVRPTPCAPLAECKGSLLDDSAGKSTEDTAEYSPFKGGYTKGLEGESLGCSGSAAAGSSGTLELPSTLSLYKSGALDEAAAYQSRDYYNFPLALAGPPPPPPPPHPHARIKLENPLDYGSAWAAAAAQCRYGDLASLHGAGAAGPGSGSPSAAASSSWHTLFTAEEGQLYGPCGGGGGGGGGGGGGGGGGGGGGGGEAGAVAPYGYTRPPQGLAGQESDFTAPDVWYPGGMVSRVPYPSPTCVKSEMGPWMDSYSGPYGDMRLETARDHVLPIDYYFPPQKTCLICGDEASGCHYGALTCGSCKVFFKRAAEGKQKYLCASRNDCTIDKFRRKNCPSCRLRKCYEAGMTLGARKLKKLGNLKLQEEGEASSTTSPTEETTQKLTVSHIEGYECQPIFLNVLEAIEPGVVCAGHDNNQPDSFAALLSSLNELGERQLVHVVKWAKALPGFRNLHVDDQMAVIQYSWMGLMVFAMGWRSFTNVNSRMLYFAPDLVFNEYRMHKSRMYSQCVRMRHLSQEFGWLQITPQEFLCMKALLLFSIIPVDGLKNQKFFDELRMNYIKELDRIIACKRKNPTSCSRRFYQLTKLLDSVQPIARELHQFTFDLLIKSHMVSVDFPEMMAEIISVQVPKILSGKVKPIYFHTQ

Sigma1 = Sigma1 (Homo sapiens, UniProt Q99720); assay: In vitro radio-ligand binding assay using membranes from MDA-MB-468 cancer cells; details: for fold decrease in binding affinity compared to IPAG: relative to IPAG
Plasma stability, mouse = format: in vitro ADME
Plasma stability, human = format: in vitro ADME
[2] = Mouse pharmacokinetics, IV and oral, plasma levels; format: in vivo, Male Swiss Mice; details: for V / AUC / clearance: 2 mg/kg IV; for AUC / clearance: male, Swiss, mouse, plasma, iv, 2 mg/kg; for AUC: AUC0−¥; for clearance: CL
[3] = Mouse pharmacokinetic exposure, IP, plasma and brain; details: male, Swiss, brain, 10 mg/kg

Sequence of Sigma1 (Q99720 whole entry): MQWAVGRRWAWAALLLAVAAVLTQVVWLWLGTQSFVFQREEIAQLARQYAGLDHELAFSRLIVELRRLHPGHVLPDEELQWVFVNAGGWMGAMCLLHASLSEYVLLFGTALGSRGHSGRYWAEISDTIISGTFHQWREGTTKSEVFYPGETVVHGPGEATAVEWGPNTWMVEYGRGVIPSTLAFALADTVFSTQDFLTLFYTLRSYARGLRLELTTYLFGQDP

Structure (SMILES): NC(=NC12CC3CC(CC(C3)C1)C2)Nc1ccc(I)cc1 [IPAG, (1-adamantan-1-yl)-3-(4-iodophenyl)guanidine, reference compound]
antiproliferative activity, potency (MDA-MB-468 cells): 3000 to 20000 nM
photo-stability [1]: particularly unstable when exposed to normal fluorescent light
stability in solution ([1]; in solution): unstable when in solution

Structure (SMILES): C[C@]12CC[C@H](O)CC1=CC[C@@H]1[C@@H]2CC[C@]2(C)C(c3cccnc3)=CC[C@@H]12 [abiraterone]
EC50 (androgen receptor (AR)): 17100 nM

Structure (SMILES): N=C(Nc1ccc(I)cc1)Nc1ccc(I)cc1 [compound 2]
Sigma1 binding affinity (in words) (Sigma1): binding affinity similar to IPAG
photo-stability [1]: photo-stability issue similar to IPAG

Continued, in another order:

fold decrease in binding affinity compared to IPAG (Sigma1): 5–10 fold
Plasma Stability Mouse (Plasma stability, mouse): >6 h
Plasma Stability Human (Plasma stability, human): >6 h
photo-stability [1]: photo-stability issue similar to IPAG
Structure (SMILES): N=C(NCCCOc1ccc(F)cc1)Nc1ccc(I)cc1 [compound 1]
acute cytotoxicity (MDA-MB-468 cells): not acutely cytotoxic
antiproliferative activity, potency (MDA-MB-468 cells): 3000 to 20000 nM

Sigma1 binding affinity (in words) (Sigma1): no affinity
Structure (SMILES): N=C(NCCCOc1ccc(F)cc1)NCCCOc1ccc(F)cc1 [compound 3]

Plasma Stability Mouse (Plasma stability, mouse): >6 h
Plasma Stability Human (Plasma stability, human): >6 h
V ([2]; Data set 1): 91.0 L/kg
V ([2]; Data set 2): 57.6 L/kg
AUC ([2]; Data set 1): 57 ng·h/mL
AUC ([2]; Data set 2): 71 ng·h/mL
clearance ([2]; Data set 1): 586 mL/min/kg
clearance ([2]; Data set 2): 469 mL/min/kg
dose escalation of exposure, oral 10 mg/kg to 30 mg/kg ([2]; oral route, 10 mg/kg to 30 mg/kg): < 3 fold
Cmax [3]: 691 ng/g
Structure (SMILES): N=C(NCCCOc1ccc(F)cc1)Nc1ccc(Cl)cc1 [compound 4, 1-(4-chlorophenyl)-3-(3-(4-fluorophenoxy)propyl)guanidine]
acute cytotoxicity (MDA-MB-468 cells): not acutely cytotoxic
antiproliferative activity, potency (MDA-MB-468 cells): 3000 to 20000 nM

fold decrease in binding affinity compared to IPAG (Sigma1): 5–10 fold
Plasma Stability Mouse (Plasma stability, mouse): >6 h
Plasma Stability Human (Plasma stability, human): >6 h
Structure (SMILES): COc1ccc(NC(=N)NCCCOc2ccc(F)cc2)cc1 [compound 5]
acute cytotoxicity (MDA-MB-468 cells): not acutely cytotoxic
antiproliferative activity, potency (MDA-MB-468 cells): 3000 to 20000 nM

fold decrease in binding affinity compared to IPAG (Sigma1): 5–10 fold
Structure (SMILES): N=C(NCCCOc1ccc(F)cc1)Nc1ccc(C(F)(F)F)cc1 [compound 6]
